Columns and labels:
Assay in all cases: relative viability (nuclei count vs DMSO), 5 days (fraction); higher = more cells survive
[1] = compound: C1=CC2=C(C=C(C(=C2N=C1)O)N=NC3=CC4=C(C=C3)C=C(C=C4)S(=O)(=O)O)S(=O)(=O)O + Cc1nc(Nc2ncc(C(=O)Nc3c(C)cccc3Cl)s2)cc(N2CCN(CCO)CC2)n1 [Dasatinib] (partner 0.075 µM)
Method in brief: (§1)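 Cells from lung cancer lines were seeded into 1536-well plates and, one day later, dosed by pin tool. Treatments were either a single drug or a fixed dose of an anchor drug with five library-drug doses (not always all listed) in √10 steps. After 5 days, nuclei were stained in a one-step fixation (final 0.05% Triton X-100, 1% formaldehyde, 1 ug/ml Hoechst) and counted on 4× images, and relative viability is the treated-to-vehicle nuclei ratio, as the median of duplicate plates.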

[2] = compound: O=C(NC1CCNCC1)c1n[nH]cc1NC(=O)c1c(Cl)cccc1Cl [AT-7519] + COc1cc2c(Oc3ccc(NC(=O)C4(C(=O)Nc5ccc(F)cc5)CC4)cc3F)ccnc2cc1OCCCN1CCOCC1 [Foretinib] (partner 0.25 µM)
Method in brief: as §1

[3] = compound: C1=CC2=C(C=C(C(=C2N=C1)O)N=NC3=CC4=C(C=C3)C=C(C=C4)S(=O)(=O)O)S(=O)(=O)O + CC(C)C[C@H](NC(=O)[C@H](Cc1ccccc1)NC(=O)c1cnccn1)B(O)O [Bortezomib] (partner 0.002 µM)
Method in brief: as §1

[4] = compound: O=C(NC1CCNCC1)c1n[nH]cc1NC(=O)c1c(Cl)cccc1Cl [AT-7519] + CC(=O)Nc1cccc(-n2c(=O)n(C3CC3)c(=O)c3c(Nc4ccc(I)cc4F)n(C)c(=O)c(C)c32)c1 [Trametinib] (partner 0.02 µM)
Method in brief: as §1

Cell Line | relative viability ([1]; first compound 0.08 µM) | relative viability ([1]; first compound 0.253 µM) | relative viability ([1]; first compound 0.8 µM) | relative viability ([1]; first compound 2.53 µM) | relative viability ([1]; first compound 8 µM) | relative viability ([2]; first compound 0.01 µM) | relative viability ([2]; first compound 0.03162 µM) | relative viability ([2]; first compound 0.3162 µM) | relative viability ([2]; first compound 1 µM) | relative viability ([3]; first compound 0.08 µM) | relative viability ([3]; first compound 0.253 µM) | relative viability ([3]; first compound 0.8 µM) | relative viability ([3]; first compound 2.53 µM) | relative viability ([3]; first compound 8 µM) | relative viability ([4]; first compound 0.01 µM) | relative viability ([4]; first compound 0.03162 µM) | relative viability ([4]; first compound 0.3162 µM) | relative viability ([4]; first compound 1 µM)
LC-2-ad | 0.799 | 0.593 | 0.555 | 0.548 | 0.687 | 0.975 | 0.984 | 0.85 | 0.452 | 1.12 | 1.04 | 0.976 | 1.08 | 0.902 | 0.892 | 0.936 | 0.933 | 0.506
NCI-H1915 | 0.311 | 0.321 | 0.29 | 0.316 | 0.314 | 1.07 | 1.1 | 1.07 | 0.807 | 1.02 | 0.957 | 0.92 | 0.892 | 0.935 | 0.58 | 0.304 | 0.316 | 0.118
NCI-H2023 | 0.689 | 0.622 | 0.558 | 0.648 | 0.541 | 0.962 | 0.914 | 1.05 | 0.459 | 0.945 | 0.945 | 1.01 | 1.15 | 0.978 | 0.541 | 0.566 | 0.437 | 0.131
COR-L 105 | 0.307 | 0.337 | 0.445 | 0.348 | 0.278 | 1.17 | 1.01 | 1.2 | 0.525 | 0.806 | 0.662 | 0.83 | 0.87 | 0.757 | 0.438 | 0.382 | 0.427 | 0.296
RERF-LC-KJ | 0.803 | 0.965 | 0.943 | 0.958 | 0.888 | 0.939 | 0.813 | 0.879 | 0.921 | 1.39 | 1.1 | 1.08 | 1.2 | 1.14 | 0.865 | 0.864 | 0.758 | 0.423
LXF-289 | 0.196 | 0.215 | 0.205 | 0.208 | 0.229 | 0.964 | 1 | 0.943 | 0.877 | 0.95 | 0.96 | 0.986 | 0.986 | 0.945 | 0.7 | 0.638 | 0.657 | 0.493
PC-14 | 0.257 | 0.288 | 0.296 | 0.31 | 0.281 | 0.889 | 0.856 | 0.928 | 0.915 | 0.923 | 0.839 | 0.906 | 0.888 | 0.856 | 0.681 | 0.771 | 0.545 | 0.0618
NCI-H650 | 0.412 | 0.433 | 0.496 | 0.462 | 0.342 | 1.04 | 0.923 | 1.01 | 1.08 | 0.782 | 0.748 | 0.94 | 0.758 | 0.614 | 1.02 | 0.924 | 1.04 | 0.348
NCI-H1666 | 0.866 | 0.755 | 0.793 | 0.816 | 0.741 | 0.839 | 0.77 | 0.927 | 0.647 | 0.874 | 0.658 | 0.799 | 0.859 | 0.658 | 0.871 | 0.842 | 0.811 | 0.593
NCI-H2085 | 0.277 | 0.253 | 0.254 | 0.208 | 0.291 | 0.932 | 0.84 | 0.888 | 0.874 | 1.23 | 1.05 | 1.01 | 1.11 | 0.953 | 0.468 | 0.585 | 0.595 | 0.367
NCI-H1734 | 0.583 | 0.346 | 0.428 | 0.44 | 0.48 | 0.897 | 0.809 | 0.718 | 0.429 | 1.07 | 0.885 | 0.863 | 1.09 | 0.978 | 0.644 | 0.629 | 0.618 | 0.31
NCI-H2126 | 0.711 | 0.645 | 0.64 | 0.713 | 0.693 | 1.08 | 1.24 | 0.838 | 1.12 | 1.14 | 1.12 | 1.11 | 1.08 | 1.11 | 0.583 | 0.594 | 0.554 | 0.44
EMC-BAC-2 | 0.324 | 0.401 | 0.336 | 0.36 | 0.367 | 0.977 | 0.998 | 1.02 | 0.794 | 1.1 | 1.06 | 1.06 | 1.14 | 1 | 0.92 | 0.835 | 0.845 | 0.376
NCI-H1993 | 0.579 | 0.648 | 0.633 | 0.594 | 0.566 | 0.786 | 0.842 | 0.809 | 0.594 | 1.08 | 1.07 | 1.28 | 1.3 | 0.977 | 0.445 | 0.496 | 0.474 | 0.453
NCI-H520 | 0.185 | 0.206 | 0.204 | 0.157 | 0.176 | 0.922 | 0.624 | 0.718 | 0.593 | 0.777 | 0.598 | 0.619 | 0.551 | 0.459 | 0.741 | 0.494 | 0.673 | 0.229
NCI-H647 | 0.212 | 0.169 | 0.151 | 0.143 | 0.194 | 1.27 | 1.21 | 0.985 | 0.889 | 1.2 | 1.08 | 0.97 | 0.953 | 1.19 | 0.439 | 0.342 | 0.475 | 0.159
SK-LU-1 | 0.2 | 0.177 | 0.212 | 0.167 | 0.172 | 0.803 | 0.794 | 0.88 | 0.433 | 1.05 | 0.942 | 0.963 | 1.1 | 0.99 | 0.498 | 0.46 | 0.416 | 0.309

From the supplement of paper PMC10307832
